US11180461B2, “Triazoles as Kv3 inhibitors” (AUTIFONY THERAPEUTICS LIMITED, priority 2012, dated 2021)

Assay: Determination of in vivo pharmacokinetic parameters (blood and brain) in rats, with and without Elacridar
Conditions: rat, oral 1 mg/kg
Description: Adult male rats (Charles River, Italy) were dosed with test compound orally at 1 mg/kg (5 ml/kg, in 5% v/v DMSO, 0.5% w/v HPMC in water) and intravenously at 0.5 mg/kg (2 ml/kg, in 5% v/v DMSO 40% w/v PEG400 in saline). After oral administration, blood samples were collected under deep Isofluorane anesthesia from the portal vein and heart of each rat (1 rat per time point). After intravenous administration, serial blood samples were collected from the lateral tail vein of each rat. A further group of rats (n=1 per test compound) received a single intravenous administration of the PgP transport inhibitor, Elacridar (3 mg/kg) shortly before the oral administration of the test compound at 1 mg/kg, as above. Blood and brain samples were collected at a single timepoint of 0.5 h after dose administration for these animals. In all cases, blood samples were collected into potassium EDTA tubes.
Blood and brain samples were assayed for test compound concentration using a method based on protein precipitation with acetonitrile followed by HPLC/MS-MS analysis with an optimized analytical method.
The concentrations of test compound in blood (expressed as ng/ml) and brain (expressed as ng/g) at the different time points following either oral or intravenous dosing were analysed using a non-compartmental pharmacokinetic model using WinNonLin Professional version 4.1. The following parameters were drived:
Intravenous dosing: Maximum concentration over time (Cmax), integrated concentration over time (AUC), clearance (Clb), volume of distribution (Vss) and half-life (t1/2).
Oral dosing: Cmax, time of maximum concentration (Tmax), AUC, bioavailability (F %), fraction absorbed (Fa %), blood to brain ratio (AUC BB), and Fold-change in AUC BB in the presence of Elacridar.

Cc1ccc(Oc2ccc(-n3c(C)n[nH]c3=O)cn2)c2c1OCC21CC1 [Example 14, 5-methyl-4-{6-[(7-methylspiro[1-benzofuran-3,1′-cyclopropan]-4-yl)oxy]pyridin-3-yl}-2,4-dihydro-3H-1,2,4-triazol-3-one]
AUC BB relative to Reference Example 87 and Reference Example 88 of WO2011069951A1 (AUC BB from blood and brain): at least two fold | change in AUC BB in the presence of Elacridar (Elacridar 3 mg/kg i.v., blood and brain at 0.5 h, p-glycoprotein interaction): limited change
